Assay results published in publication PMC4466095 (Bioorganic & medicinal chemistry, 2014).

How the values were obtained:
Type in all cases: cell-based
mouse neutrophils = assay: Ca2+ mobilization in mouse neutrophils; conditions: Neutrophil, read-out: EC50, Ca2+ mobilization, Mouse PMN
FPR2 = target: T1, FPR2 (Homo sapiens, UniProt P25090); assay: Ca2+ mobilization in FPR2-transfected HL-60 cells
T1 sequence (P25090 1-351): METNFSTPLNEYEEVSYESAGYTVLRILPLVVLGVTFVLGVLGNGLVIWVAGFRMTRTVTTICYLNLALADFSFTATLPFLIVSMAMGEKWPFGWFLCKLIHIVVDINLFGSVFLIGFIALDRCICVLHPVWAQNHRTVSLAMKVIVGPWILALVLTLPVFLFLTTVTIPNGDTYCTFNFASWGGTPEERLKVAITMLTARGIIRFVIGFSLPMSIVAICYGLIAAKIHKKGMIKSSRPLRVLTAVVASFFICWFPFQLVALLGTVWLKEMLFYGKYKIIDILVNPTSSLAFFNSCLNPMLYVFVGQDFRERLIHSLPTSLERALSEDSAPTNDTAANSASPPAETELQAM

FPR1 = target: T2, FPR1 (Homo sapiens, UniProt P21462); assay: Ca2+ mobilization in FPR1-transfected HL-60 cells
T2 sequence (P21462 1-350): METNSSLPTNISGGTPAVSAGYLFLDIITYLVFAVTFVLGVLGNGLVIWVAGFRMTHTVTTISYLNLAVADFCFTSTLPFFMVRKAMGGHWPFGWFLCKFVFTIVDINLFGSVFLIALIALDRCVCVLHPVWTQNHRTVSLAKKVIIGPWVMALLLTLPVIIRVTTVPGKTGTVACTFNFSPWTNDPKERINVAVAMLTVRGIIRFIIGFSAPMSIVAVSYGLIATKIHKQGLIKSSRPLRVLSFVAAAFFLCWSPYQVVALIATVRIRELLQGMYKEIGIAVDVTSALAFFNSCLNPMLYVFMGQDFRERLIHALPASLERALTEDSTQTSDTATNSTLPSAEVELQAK

human neutrophils = assay: Ca2+ mobilization in human neutrophils

| SMILES | EC50 (mouse neutrophils) [nM] | activation of FPR2 in FPR2-HL60 cells and in human neutrophils (in words) (FPR2) | Ca2+ mobilization in FPR1-HL60 cells (in words) (FPR1) | Ca2+ mobilization in human neutrophils (in words) (human neutrophils) | difference in potency between enantiomers in activation of human neutrophils (human neutrophils; (S)-9a vs (R)-9a) [fold] | Efficacy, Ca2+ mobilization, Human PMN (w/o probenecid) (human neutrophils; without probenecid, normalized to 5 nM fMLF = 100%) [%] |
| --- | --- | --- | --- | --- | --- | --- |
| COc1ccc(NC(=O)N[C@@H](Cc2c[nH]c3ccccc23)C(=O)NCC2(c3cccnc3)CCCCC2)cc1 [(S)-9d, (S)-3-(1H-Indol-3-yl)-2-[3-(4-methoxyphenyl)ureido]-N-[[1-(3-pyridinyl)cyclohexyl]methyl]propanamide] | 3900 ± 1500 | able to activate FPR2 | unable to stimulate Ca^2+ mobilization | – | – | – |
| COc1ccc(NC(=O)N[C@H](Cc2c[nH]c3ccccc23)C(=O)NCC2(c3ccccn3)CCCCC2)cc1 [(R)-9e, (R)-3-(1H-Indol-3-yl)-2-[3-(4-methoxyphenyl)ureido]-N-[[1-(2-pyridinyl)cyclohexyl]methyl]propanamide] | 1000 ± 270 | – | – | – | – | – |
| COc1ccc(NC(=O)N[C@H](Cc2c[nH]c3ccccc23)C(=O)NCC2(c3ccc(OC)cn3)CCCCC2)cc1 [(R)-9a, (R)-3-(1H-Indol-3-yl)-2-[3-(4-methoxyphenyl)ureido]-N-[[1-(5-methoxy-2-pyridinyl)cyclohexyl]methyl]propanamide] | 4900 ± 1400 | – | – | – | – | – |
| COc1ccc(NC(=O)N[C@H](Cc2c[nH]c3ccccc23)C(=O)NCC2(c3ccccc3)CCCCC2)cc1 [(R)-9c, (R)-3-(1H-Indol-3-yl)-2-[3-(4-methoxyphenyl)ureido]-N-[(1-phenylcyclohexyl)methyl]propanamide] | 3800 ± 1300 | – | unable to stimulate Ca^2+ mobilization | only in the presence of probenecid | – | – |
| COc1ccc(NC(=O)N[C@H](Cc2c[nH]c3ccccc23)C(=O)NCC2(c3ccc(F)cc3)CCCCC2)cc1 [(R)-9f, (R)-N-[[1-(4-Fluorophenyl)cyclohexyl]methyl]-3-(1H-indol-3-yl)-2-[3-(4-methoxyphenyl)ureido]propanamide] | 2500 ± 420 | inactive | – | not able to induce Ca^2+ mobilization | – | – |
| COc1ccc(NC(=O)N[C@@H](Cc2c[nH]c3ccccc23)C(=O)NCC2(c3ccccn3)CCCCC2)cc1 [(S)-9e, (S)-3-(1H-Indol-3-yl)-2-[3-(4-methoxyphenyl)ureido]-N-[[1-(2-pyridinyl)cyclohexyl]methyl]propanamide] | 2800 ± 640 | – | stimulated Ca^2+ mobilization | – | – | – |
| COc1ccc(NC(=O)N[C@@H](Cc2c[nH]c3ccccc23)C(=O)NCC2(c3ccnc(F)c3)CCCCC2)cc1 [(S)-9b] | 1700 ± 440 | active | unable to stimulate Ca^2+ mobilization | – | – | – |
| COc1ccc(NC(=O)N[C@H](Cc2c[nH]c3ccccc23)C(=O)NCC2(c3ccnc(F)c3)CCCCC2)cc1 [(R)-9b] | 2300 ± 730 | inactive | – | not able to induce Ca^2+ mobilization | – | – |
| COc1ccc(NC(=O)N[C@H](Cc2c[nH]c3ccccc23)C(=O)NCC2(c3cccnc3)CCCCC2)cc1 [(R)-9d, (R)-3-(1H-Indol-3-yl)-2-[3-(4-methoxyphenyl)ureido]-N-[[1-(3-pyridinyl)cyclohexyl]methyl]propanamide] | 2100 ± 580 | – | – | not able to induce Ca^2+ mobilization | – | – |
| COc1ccc(NC(=O)N[C@@H](Cc2c[nH]c3ccccc23)C(=O)NCC2(c3ccc(OC)cn3)CCCCC2)cc1 [(S)-9a, (S )-3-(1H-indol-3-yl)-2-[3-(4-methoxyphenyl)ureido]-N -[[1-(5-methoxy-2-pyridinyl)cyclohexyl]methyl]propanamide] | 240 ± 70 | – | stimulated Ca^2+ mobilization | – | > 14 | 100 |
| COc1ccc(NC(=O)N[C@@H](Cc2c[nH]c3ccccc23)C(=O)NCC2(c3ccc(F)cc3)CCCCC2)cc1 [(S)-9f, (S)-N-[[1-(4-Fluorophenyl)cyclohexyl]methyl]-3-(1H-indol-3-yl)-2-[3-(4-methoxyphenyl)ureido]propanamide] | 2300 ± 350 | active | unable to stimulate Ca^2+ mobilization | only in the presence of probenecid | – | – |
| COc1ccc(NC(=O)N[C@@H](Cc2c[nH]c3ccccc23)C(=O)NCC2(c3ccccc3)CCCCC2)cc1 [(S)-9c, (S)-3-(1H-Indol-3-yl)-2-[3-(4-methoxyphenyl)ureido]-N-[(1-phenylcyclohexyl)methyl]propanamide] | 2500 ± 610 | – | – | not able to induce Ca^2+ mobilization | – | – |
